Data published in patent publication US20220243177A1, “METHODS OF CULTURING QUIESCENT HEMATOPOIETIC STEM CELLS AND TREATMENT METHODS” (priority 2019, published 2022).

Tests used:
[1] = tested on: MMP-low and MMP-high HSCs; experiment: Glucose uptake assay (2NBDG); format: cell-based, mouse; details: ConA (25 nM, 50 nM), 18 hours
Method: Glucose Uptake Assay: For measurement of glucose uptake, freshly FACS-purified MMP-low and MMP-high HSCs (at least 2,000 cells pooled in average from 8 mice) were cultured immediately in […] of glucose, glutamine, pyruvate free medium containing 100 or 200 μM 2-(n-(7-nitrobenz-2-oxa-1,3-diazol-4-yl amino)-2-deoxyglucose (2-NBD-Glucose, 2NBDG) for 2 hours. Cells were then washed multiple times in PBS, re-suspended in PBS containing 1 μg/ml DAPI, and analyzed by flow cytometry for 2-NBD glucose fluorescence in the FITC channel. In some experiments cells were cultured in StemSpan medium (StemCell Technology) supplemented with SCF (100 ng/ml) and TPO (20 ng/ml), treated with or without STF-31 ([…]), ConA (25, 50 nM), dimethyl alpha ketoglutarate (MOG, 1 mM), methyl pyruvate (MP, 1 mM) or DMSO, incubated at 37° C. in a humidified atmosphere with 5% CO2 for 6 or 18 hours before removing culture medium from each well, washing extensively and adding […] of glucose, glutamine, pyruvate free medium containing […] of 2 NBDG for 2 hours before washing cells multiple times in PBS and analyzing by flow cytometry. Quantification of 2NBDG uptake was measured by the geometric mean fluorescence intensity (“MFI”) as well as % of 2NBDG^+ cells.

[2] = tested on: MMP-low and MMP-high HSCs; experiment: Immunofluorescence staining and laser scanning confocal microscopy of treated HSCs; format: cell-based, mouse; details: ConA 40 nM, 18 hours
Method: Immunofluorescence Staining, Imaging, and Analysis—Laser Scanning Confocal Microscopy: FACS purified MMP-low and MMP-high HSCs (in average pooled from three mice) were seeded into retronectin-coated channel slides (Ibidi Cat# 80626) and fixed for 15 minutes with 10% formalin (1,000 cells). After washing with PBS, cells were permeabilized in PBS+0.25% Triton™ X-100 for 15 minutes and blocked for 1 hour in 3% BSA. Fixed and permeabilized cells were then incubated with primary antibodies (1:150) in PBS+1% BSA overnight at 4° C., washed and stained with fluorescence-conjugated secondary antibodies (1:1,000) for 1 hour at room temperature. Slides were sealed with mounting medium with DAPI. Images were captured using a Zeiss LSM880 Airyscan confocal microscope using a 100× objective (N.A. 1.46).
For analysis by immunofluorescence staining, MMP-low and MMP-high HSCs were FACS-purified and incubated in StemSpan medium containing SCF (100 ng/ml) and TPO (20 ng/ml) for the indicated time with the indicated compounds at 37° C. in a humidified atmosphere with 5% CO2. After treatment, cells were processed for confocal imaging as described above.
Fluorescence Intensity: Channel displaying the protein of interest were isolated and quantified on a per cell basis using the raw integrated density metric generated by the measure command. For nuclear intensity, DAPI thresholds were used to delimit the nucleus and mapped back onto the channel displaying the protein of interest to determine fluorescence intensity within the nucleus only.

[3] = tested on: aged MMP-low and -high LT-HSCs transplanted into lethally irradiated mice; experiment: Long-term in vivo competitive repopulation assay of aged HSCs after ex vivo ConA; parameters: species or system mouse
Method: FIGS. 21A-21C show repression of lysosomal activity ex vivo greatly improves in vivo competitive repopulation of old HSCs. FIG. 21A is a schematic of long-term in vivo competitive repopulation assay. FACS-sorted (5000) aged MMP-low and -high (CD45.2) long-term (LT) HSCs were cultured in vitro in DMSO control or Con A (40 nM) for 4 days after which 100 cells from each group were injected into lethally irradiated recipient (CD45.1) mice along with 2×10^5 CD45.1 total bone marrow competitor cells (n=7). FIG. 21B is a graph showing contribution of donor-derived (CD45.2) cells to the peripheral blood (PB) of primary recipient mice (CD45.1) in a long-term competitive repopulation assay. FIG. 21C is a graph showing lineage output as a percentage of total CD45.2 donor-derived cells in primary recipients. Data expressed as Mean±SEM (**P<0.01, ***P<0.001). Note only ConA-treated old HSCs and not control-treated HSCs generate over 1% chimerism in transplanted animals after 21 weeks.

[4] = aging MMP-low and MMP-high HSCs

C/C=C/[C@H]1O[C@@](O)([C@@H](C)[C@H](O)[C@H](C)[C@H]2OC(=O)/C(OC)=C/C(C)=C/[C@@H](C)[C@@H](O)[C@@H](CC)[C@@H](O)[C@H](C)C/C(C)=C/C=C/[C@@H]2OC)C[C@@H](O[C@H]2C[C@@H](O)[C@H](OC(N)=O)[C@@H](C)O2)[C@@H]1C [ConA, concanamycin A]
decrease of glucose uptake in MMP-high HSCs [1]: 19 fold | effect on reducing the viability under the glucose uptake condition [1]: mostly restricted to MMP-high and subtle in MMP-low HSCs | lysosomal phenotype (LAMP2) [2]: bloated lysosomal phenotype | mTOR co-localization with lysosomes in MMP-high HSCs [2]: lost | expression of Ki67 and CDK6 ([2]; MMP-high HSCs): restored in ConA-treated MMP-high HSCs to the levels of the untreated MMP-low HSCs | mTOR signaling (mTOR, RHEB, RAGA/B, p4EBP1) in MMP-high HSCs ([2]; almost to levels of rapamycin (40 nM)-treated HSCs): repression of mTOR signaling | mTOR activity in old HSCs ([2]; aging HSCs): reduced/abolished mTOR activity | cycling status (CDK6 staining) of aging HSCs [2, 4]: reverted the cycling status | lysosomal content in old HSCs [2, 4]: increasing lysosomal content | lineage output of aged MMP-high HSCs ([3]; 4-day cultured, Con A 40 nM): balanced their lineage output | competitive repopulation ability of aged MMP-high HSCs ([3]; 4-day cultured, Con A 40 nM, 100 cells): remarkably improved | self-renewal of old HSCs and their balance blood production ([3]; ex vivo ConA treatment (FIG. 19 and FIG. 20)): improves significantly | self-renewal of aged HSCs in secondary transplants ([3]; mice receiving control-treated HSCs died): improved self-renewal in secondary transplants | survival of recipients in secondary transplantation ([3]; old HSCs, 4-day ex vivo ConA, not control-treated): survive in secondary transplantation | chimerism in transplanted animals ([3]; old HSCs, after 21 weeks, control-treated HSCs do not): over 1%
